{"source": "patent US10603319B2", "about": "“Pyrimidine derivatives and their use in treating or preventing a respiratory syncytial virus infection” (REVIRAL LIMITED, priority 2016, dated 2020)", "key": {"RSV A2 VR-1540": {"tested_on": "RSV A2 VR-1540", "test": "Plaque Reduction Assay 2 (HEp-2 cells, virospot count)", "type": "cell-based", "conditions": "human respiratory syncytial virus, 24 h; RSV A2, HEp-2 cells, 1 day", "excerpt": "Plaque Reduction Assay 2:\nThis RSV plaque reduction assay is an infectivity assay which allows quantification of the number of infectious units in a distinct foci of RSV infection. This is indicated by zones of viral antigen detected by specific antibody staining within a monolayer of otherwise healthy tissue culture cells. As each plaque originates from a single infectious virus particle an accurate calculation of the anti-viral effect can be obtained by counting plaques in the presence and absence of an anti-viral compound. HEp-2 cells (ATCC, CCL23) were passaged in flasks and seeded in 96-well plates in DMEM containing antibiotics and supplemented with 10% FBS. During inoculation and subsequent incubation, cells were cultured in DMEM containing 3% FBS. 100 plaque forming unit (PFU)/well of RSV (RSV A2 VR-1540) was mixed with ten serial dilutions of compound. Subsequently, 100 μL of the virus/compound mixtures was added to confluent HEp-2 cell monolayers. The cells and virus/compound mixtures were incubated at 35° C. in a humidified 5% CO2 incubator for 1 day.\nCells were washed twice with PBS before adding 50% v/v EtOH/MeOH, and then stored at −20° C. On the day of the staining, fixative was first removed from the plates. Plates were washed 3× with PBS. A pre-titrated amount of the primary antibody was added in 60 μL PBS/2% milk powder, and plates incubated for 1 h at rt. The plates were washed 3× with PBS/0.05% Tween20 before addition of goat anti-mouse horse radish peroxidase in 60 μL PBS/2% milk powder, and incubated for 1 h at rt. Following three wash steps with PBS/0.05% Tween20, 60 μL ready-to-use TrueBlue was added and plates were incubated at rt for 10-15 min before adding MilliQ water. Plates were washed once with water, incubated for 30-60 min and after removal of water, air-dried in the dark.\nPlates were scanned and analyzed using the Immunospot S6 UV analyzer, which is equipped with BioSpot analysis software for counting immunostained plaques (virospots). Plaque counts were used to calculate % infection relative to the mean of the spot count (SC) in the virus control wells for RSV. IC50/IC90 values were calculated as 50% or 90% reduction in signal, respectively, by interpolation of inhibition curves fitted with a 4-parameter nonlinear regression with a variable slope in GraphPad 5.0 (Prism)."}, "[1]": {"test": "Liver microsomal stability, human", "type": "in vitro ADME", "conditions": "both sexes, pooled liver microsomes, pH 7.4, 0.5 mg/mL protein, read-out: Liver Microsomal Stability (T1/2/mins) human", "experimental": "Microsomal Incubation: Experimental Procedure\nPooled human liver microsomes (pooled male and female), pooled rat liver microsomes (male Sprague Dawley rats) and pooled dog liver microsomes (male Beagle dog) are purchased from a reputable commercial supplier and stored at −80° C. prior to use.\nMicrosomes (final protein concentration 0.5 mg/mL), 0.1 M phosphate buffer pH 7.4 and test compound (final substrate concentration 3 μM; final DMSO concentration 0.25%) are pre-incubated at 37° C. prior to the addition of NADPH (final concentration 1 mM) to initiate the reaction. The final incubation volume is 50 μL. A control incubation is included for each compound tested where 0.1 M phosphate buffer pH 7.4 is added instead of NADPH (minus NADPH). Two control compounds are included with each species. All incubations are performed singularly for each test compound.\nCompounds are incubated for 0, 5, 15, 30 and 45 min. The control (minus NADPH) is incubated for 45 min only. […] Following protein precipitation, the sample supernatants are combined in cassettes of up to 4 compounds, internal standard is added and samples analysed by LC-MS/MS. From a plot of ln peak area ratio (compound peak area/internal standard peak area) against time, the gradient of the line is determined. Subsequently, half-life and intrinsic clearance are calculated"}}}
{"compound": "NC1CCN(c2ncc(CN3C(=O)C4(CC4)c4ccc(F)cc43)c(N[C@H]3CC[C@H](O)CC3)n2)C1", "note": "(some centres unmarked) [Compound 2, 1′-((2-(3-Aminopyrrolidin-1-yl)-4-(((1r,4r)-4-hydroxycyclohexyl)amino)pyrimidin-5-yl)methyl)-6′-fluorospiro[cyclopropane-1,3′-indolin]-2′-one]", "values": [{"measurement": "IC50", "setting": "RSV A2 VR-1540", "result": 58, "unit": "nM"}, {"measurement": "half-life at 3 μM", "setting": "[1]", "result": 2.82, "unit": "h"}]}
